Results: US20090299044A1 (priority 2006, published 2009)
Bridge positions count the residues as written; N and C are the ends. Square brackets hold non-standard residues; d marks the D form. Peptide text beside a SMILES is read from it. 1Nal = N[C@@H](Cc1cccc2ccccc12)C(=O)O

Legend:
human Kv1.1 (HEK293) = target: T1, human Kv1.1 (HEK293) (Homo sapiens, UniProt Q09470); assay: cell-based
T1 construct: expressed in transfected cells; host or cells: HEK293

human Kv1.3 (CHO) = target: T2, human Kv1.3 (CHO) (Homo sapiens, UniProt P22001); assay: cell-based
T2 construct: expressed in transfected cells; host or cells: CHO
T2 sequence (P22001 whole entry): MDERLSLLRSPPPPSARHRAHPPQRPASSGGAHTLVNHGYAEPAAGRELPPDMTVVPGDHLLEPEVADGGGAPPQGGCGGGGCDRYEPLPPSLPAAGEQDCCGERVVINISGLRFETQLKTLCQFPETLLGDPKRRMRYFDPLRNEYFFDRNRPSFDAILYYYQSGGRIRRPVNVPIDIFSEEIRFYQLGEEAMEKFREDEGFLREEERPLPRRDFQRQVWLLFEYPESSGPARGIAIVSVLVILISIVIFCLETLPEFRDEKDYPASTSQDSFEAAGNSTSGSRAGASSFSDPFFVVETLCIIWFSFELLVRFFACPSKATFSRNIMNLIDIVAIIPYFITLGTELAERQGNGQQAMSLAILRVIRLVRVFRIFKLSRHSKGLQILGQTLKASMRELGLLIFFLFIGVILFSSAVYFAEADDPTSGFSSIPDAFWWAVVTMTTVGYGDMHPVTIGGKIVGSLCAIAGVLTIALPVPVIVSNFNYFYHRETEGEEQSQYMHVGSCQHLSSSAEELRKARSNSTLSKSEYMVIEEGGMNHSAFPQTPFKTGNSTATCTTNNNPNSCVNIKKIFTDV

T1 sequence (Q09470 whole entry): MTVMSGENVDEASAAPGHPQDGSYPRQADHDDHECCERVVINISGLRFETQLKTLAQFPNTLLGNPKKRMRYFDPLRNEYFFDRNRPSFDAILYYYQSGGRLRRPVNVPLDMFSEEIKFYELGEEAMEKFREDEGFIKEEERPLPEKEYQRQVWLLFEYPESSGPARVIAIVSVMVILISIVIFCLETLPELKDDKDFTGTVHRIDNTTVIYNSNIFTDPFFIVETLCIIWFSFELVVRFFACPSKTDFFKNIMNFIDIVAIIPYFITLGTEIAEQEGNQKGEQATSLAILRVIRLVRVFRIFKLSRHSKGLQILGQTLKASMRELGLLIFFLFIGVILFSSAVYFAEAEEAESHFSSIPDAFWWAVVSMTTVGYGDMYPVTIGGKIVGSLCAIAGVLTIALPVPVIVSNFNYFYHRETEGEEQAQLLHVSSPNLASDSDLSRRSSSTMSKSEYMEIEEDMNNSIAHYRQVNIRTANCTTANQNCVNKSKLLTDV

SMILES	IC50 (human Kv1.1 (HEK293)) [nM]	IC50 (human Kv1.3 (CHO)) [nM]
CC[C@H](C)[C@@H]1NC(=O)[C@H](CCCCN)NC(=O)[C@@H](NC(=O)[C@H](CCCCN)NC(=O)[C@@H](NC(=O)[C@H](CC(N)=O)NC(=O)[C@@H](NC(=O)[C@@H](NC(=O)[C@@H](NC(=O)CN)C(C)C)[C@@H](C)CC)[C@@H](C)CC)C(C)C)CSSC[C@@H]2NC(=O)[C@H](CCCCN)NC(=O)CNC(=O)[C@H](Cc3ccccc3)NC(=O)[C@H](CCCNC(=N)N)NC(=O)[C@H](CCSC)NC(=O)CNC(=O)[C@H](C)NC(=O)[C@H](CCCCN)NC(=O)[C@H](CCCCN)NC(=O)[C@@H]3CSSC[C@@H](C(=O)N[C@H](C(=O)N4CCC[C@H]4C(=O)N[C@@H](CCCCN)C(=O)O)[C@@H](C)O)NC(=O)[C@H](Cc4c[nH]cn4)NC(=O)[C@H](CSSC[C@H](NC(=O)[C@H](CCC(N)=O)NC(=O)[C@H](CCC(=O)O)NC(=O)[C@H](CO)NC1=O)C(=O)N[C@@H](CC(C)C)C(=O)N[C@@H](CCC(=O)O)C(=O)N1CCC[C@H]1C(=O)N3)NC(=O)[C@H](CCCCN)NC(=O)CNC(=O)[C@H](CC(N)=O)NC(=O)[C@H](CCSC)NC2=O [R12E] (H-GVIINVKCKISEQCLEPCKKAGMRFGKCMNGKCHCTPK-OH; disulfide 8-28, 14-33, 18-35)	0.193	0.0897
CC[C@H](C)[C@@H]1NC(=O)[C@H](CCCCN)NC(=O)[C@@H](NC(=O)[C@H](CCCCN)NC(=O)[C@@H](NC(=O)[C@H](CC(N)=O)NC(=O)[C@@H](NC(=O)[C@@H](NC(=O)[C@@H](NC(=O)CN)C(C)C)[C@@H](C)CC)[C@@H](C)CC)C(C)C)CSSC[C@@H]2NC(=O)[C@H](CCCCN)NC(=O)CNC(=O)[C@H](Cc3ccccc3)NC(=O)[C@H](C)NC(=O)[C@H](CCSC)NC(=O)CNC(=O)[C@H](C)NC(=O)[C@H](CCCCN)NC(=O)[C@H](CCCCN)NC(=O)[C@@H]3CSSC[C@@H](C(=O)N[C@H](C(=O)N4CCC[C@H]4C(=O)N[C@@H](CCCCN)C(=O)O)[C@@H](C)O)NC(=O)[C@H](Cc4c[nH]cn4)NC(=O)[C@H](CSSC[C@H](NC(=O)[C@H](CCC(N)=O)NC(=O)[C@H](CCCNC(=N)N)NC(=O)[C@H](CO)NC1=O)C(=O)N[C@@H](CC(C)C)C(=O)N[C@@H](CCC(=O)O)C(=O)N1CCC[C@H]1C(=O)N3)NC(=O)[C@H](CCCCN)NC(=O)CNC(=O)[C@H](CC(N)=O)NC(=O)[C@H](CCSC)NC2=O [R24A] (H-GVIINVKCKISRQCLEPCKKAGMAFGKCMNGKCHCTPK-OH; disulfide 8-28, 14-33, 18-35)	1.89	> 3
CC[C@H](C)[C@@H]1NC(=O)[C@H](CCCCN)NC(=O)[C@@H](NC(=O)[C@H](CCCCN)NC(=O)[C@@H](NC(=O)[C@H](CC(N)=O)NC(=O)[C@@H](NC(=O)[C@@H](NC(=O)[C@@H](NC(=O)CN)C(C)C)[C@@H](C)CC)[C@@H](C)CC)C(C)C)CSSC[C@@H]2NC(=O)[C@H](CCCCN)NC(=O)CNC(=O)[C@H](Cc3ccccc3)NC(=O)[C@H](Cc3cccc4ccccc34)NC(=O)[C@H](CCSC)NC(=O)CNC(=O)[C@H](C)NC(=O)[C@H](CCCCN)NC(=O)[C@H](CCCCN)NC(=O)[C@@H]3CSSC[C@@H](C(=O)N[C@H](C(=O)N4CCC[C@H]4C(=O)N[C@@H](CCCCN)C(=O)O)[C@@H](C)O)NC(=O)[C@H](Cc4c[nH]cn4)NC(=O)[C@H](CSSC[C@H](NC(=O)[C@H](CCC(N)=O)NC(=O)[C@H](CCCNC(=N)N)NC(=O)[C@H](CO)NC1=O)C(=O)N[C@@H](CC(C)C)C(=O)N[C@@H](CCC(=O)O)C(=O)N1CCC[C@H]1C(=O)N3)NC(=O)[C@H](CCCCN)NC(=O)CNC(=O)[C@H](CC(N)=O)NC(=O)[C@H](CCSC)NC2=O [R24Nal] (H-GVIINVKCKISRQCLEPCKKAGM[1Nal]FGKCMNGKCHCTPK-OH; disulfide 8-28, 14-33, 18-35)	0.00285	0.0453
CC[C@H](C)[C@@H]1NC(=O)[C@H](CCCCN)NC(=O)[C@@H](NC(=O)[C@H](CCCCN)NC(=O)[C@@H](NC(=O)[C@H](CC(N)=O)NC(=O)[C@@H](NC(=O)[C@@H](NC(=O)[C@@H](NC(=O)CN)C(C)C)[C@@H](C)CC)[C@@H](C)CC)C(C)C)CSSC[C@@H]2NC(=O)[C@H](CCCCN)NC(=O)CNC(=O)[C@H](Cc3ccccc3)NC(=O)[C@H](CCCNC(=N)N)NC(=O)[C@H](CCSC)NC(=O)CNC(=O)[C@H](C)NC(=O)[C@H](CCCCN)NC(=O)[C@H](CCCCN)NC(=O)[C@@H]3CSSC[C@@H](C(=O)N[C@H](C(=O)N4CCC[C@H]4C(=O)N[C@@H](CCCCN)C(=O)O)[C@@H](C)O)NC(=O)[C@H](Cc4c[nH]cn4)NC(=O)[C@H](CSSC[C@H](NC(=O)[C@H](CCC(N)=O)NC(=O)[C@H](CCCNC(=N)N)NC(=O)[C@H](C)NC1=O)C(=O)N[C@@H](CC(C)C)C(=O)N[C@@H](CCC(=O)O)C(=O)N1CCC[C@H]1C(=O)N3)NC(=O)[C@H](CCCCN)NC(=O)CNC(=O)[C@H](CC(N)=O)NC(=O)[C@H](CCSC)NC2=O [S11A] (H-GVIINVKCKIARQCLEPCKKAGMRFGKCMNGKCHCTPK-OH; disulfide 8-28, 14-33, 18-35)	0.113	0.0408
CC[C@H](C)[C@@H]1NC(=O)[C@H](CCCCN)NC(=O)[C@@H](NC(=O)[C@H](CCCCN)NC(=O)[C@@H](NC(=O)[C@H](CC(N)=O)NC(=O)[C@@H](NC(=O)[C@@H](NC(=O)[C@@H](NC(=O)CN)C(C)C)[C@@H](C)CC)[C@@H](C)CC)C(C)C)CSSC[C@@H]2NC(=O)[C@H](CCCCN)NC(=O)CNC(=O)[C@H](Cc3ccccc3)NC(=O)[C@H](CCCNC(=N)N)NC(=O)[C@H](CCSC)NC(=O)CNC(=O)[C@H](C)NC(=O)[C@H](CCCCN)NC(=O)[C@H](CCCCN)NC(=O)[C@@H]3CSSC[C@@H](C(=O)N[C@@H](CCCNC(=N)N)C(=O)N4CCC[C@H]4C(=O)N[C@@H](CCCCN)C(=O)O)NC(=O)[C@H](Cc4c[nH]cn4)NC(=O)[C@H](CSSC[C@H](NC(=O)[C@H](CCC(N)=O)NC(=O)[C@H](CCCNC(=N)N)NC(=O)[C@H](CO)NC1=O)C(=O)N[C@@H](CC(C)C)C(=O)N[C@@H](CCC(=O)O)C(=O)N1CCC[C@H]1C(=O)N3)NC(=O)[C@H](CCCCN)NC(=O)CNC(=O)[C@H](CC(N)=O)NC(=O)[C@H](CCSC)NC2=O [T36R] (H-GVIINVKCKISRQCLEPCKKAGMRFGKCMNGKCHCRPK-OH; disulfide 8-28, 14-33, 18-35)	0.0266	1.31
CC[C@H](C)[C@@H]1NC(=O)[C@H](CCCCN)NC(=O)[C@@H](NC(=O)[C@H](CCCCN)NC(=O)[C@@H](NC(=O)[C@H](CC(N)=O)NC(=O)[C@@H](NC(=O)[C@@H](NC(=O)[C@H](CCC(=O)O)NC(=O)CN)[C@@H](C)CC)[C@@H](C)CC)C(C)C)CSSC[C@@H]2NC(=O)[C@H](CCCCN)NC(=O)CNC(=O)[C@H](Cc3ccccc3)NC(=O)[C@H](CCCNC(=N)N)NC(=O)[C@H](CCSC)NC(=O)CNC(=O)[C@H](C)NC(=O)[C@H](CCCCN)NC(=O)[C@H](CCCCN)NC(=O)[C@@H]3CSSC[C@@H](C(=O)N[C@H](C(=O)N4CCC[C@H]4C(=O)N[C@@H](CCCCN)C(=O)O)[C@@H](C)O)NC(=O)[C@H](Cc4c[nH]cn4)NC(=O)[C@H](CSSC[C@H](NC(=O)[C@H](CCC(N)=O)NC(=O)[C@H](CCCNC(=N)N)NC(=O)[C@H](CO)NC1=O)C(=O)N[C@@H](CC(C)C)C(=O)N[C@@H](CCC(=O)O)C(=O)N1CCC[C@H]1C(=O)N3)NC(=O)[C@H](CCCCN)NC(=O)CNC(=O)[C@H](CC(N)=O)NC(=O)[C@H](CCSC)NC2=O [V2E] (H-GEIINVKCKISRQCLEPCKKAGMRFGKCMNGKCHCTPK-OH; disulfide 8-28, 14-33, 18-35)	0.035	0.0362
